From patent publication US20230303564A1, “PYRIMIDINE RING COMPOUND” (MEDSHINE DISCOVERY INC., priority 2020, published 2023) come the findings set out here.

Assay [1] deals with CDK4/CyclinD1 (Homo sapiens (Human), UniProt P11802). Nature of the assay: CDK4/CyclinD1 enzyme activity test (LANCE Ultra TR-FRET). In kind it is biochemical. The settings on record: 350 μM ATP, 25° C. 120 minutes, read-out: CDK4/Cyclin D1 IC50. As for the experimental part: CDK4/CyclinD1 Enzyme Reaction System
(§1) Preparation of Kinase Buffer:
(§2) The composition of the buffer: 50 mM of hydroxyethylpiperazine ethanesulfonic acid solution at pH 7.5, 1 mM of ethylenediaminetetraacetic acid, 10 mM of magnesium chloride, 0.01% Brij-35, and 2 mM of dithiothreitol.
(§3) Enzymes, substrate LANCE Ultra ULight™-4E-BP-1(Thr37146) Peptide, ATP, and inhibitors were diluted by kinase buffer.
(§4) The compounds to be tested were diluted 5-fold with a multi-channel pipette to the eighth concentration, that is, from 40 μM to 0.512 nM, the concentration of DMSO was 4%, and a double-hole experiment was set up. […] The reaction system was reacted at 25° C. for 120 minutes. After the reaction, 5 μL mixture of EDTA and 2× LANCE™ Detection Buffer (1:1) were added to each well, the reaction was carried out at 25° C. for 5 minutes, after the reaction was completed, 5 μL of LANCE Ultra Eu-anti-P-4E-BP1(Thr37MS) (4 nM) was added to each well, the reaction was carried out at 25° C. for 60 minutes, the reaction signal was detected by Nivo instrument according to the principle of time-resolved fluorescence resonance energy transfer.
(§5) The equation (Sample−Min)/(Max−Min)*100% was used to convert the raw data into inhibition rate, and the value of IC50 can be obtained by curve fitting with four parameters (obtained by log (inhibitor) vs. response-Variable slope mode in GraphPad Prism). The enzymatic inhibitory activity of the compounds of the present disclosure on CDK1/CyclinB1, CDK2/CyclinA2, CDK2/CyclinE1, CDK4/CyclinD1, CDK6/CyclinD1, CDK7/CyclinH/MAT1, CDK9/CyclinT1 was provided in Table 1.
A general note: Time-resolved FRET reads energy transfer from a long-lived donor to a nearby acceptor.

Assay [2] concerns the target CDK2/CyclinA2 (Homo sapiens (Human), UniProt P24941). Kind of assay: CDK2/CyclinA2 enzyme activity test (ADP-Glo). In kind it is biochemical. The settings on record: 50 μM ATP, 25° C. 60 minutes, read-out: CDK2/Cyclin A2 IC50. As for the experimental part: CDK2/CyclinA2 Enzyme Reaction System
(§6) Enzymes, substrates, ATP, and inhibitors were diluted by kinase buffer in the kit. The compounds to be tested were diluted 5-fold with a multi-channel pipette to the eighth concentration, that is, from 50 μM to 0.65 nM, the concentration of DMSO was 5%, and a double-hole experiment was set up. 1 μL of each concentration gradient of inhibitors, 2 μL of CDK2/CyclinA2 enzyme (1.6 ng), 2 μL mixture of substrate and ATP (50 μM ATP, 0.1 μg/μL substrate) were added to the microplates, and the final concentration gradient of the compound was 10 μM to 0.13 nM. The reaction system was reacted at 25° C. for 60 minutes. After the reaction, 5 μL of ADP-Glo reagent was added to each well, the reaction was carried out at 25° C. for 40 minutes, after the reaction was completed, 10 μL of kinase detection reagent was added to each well, the reaction was carried out at 25° C. for 30 minutes, the multiple label analyzer was used to read the chemiluminescence with an integration time of 0.5 seconds
as §5

Assay [3] has as its target CDK6/CyclinD1 (Homo sapiens (Human), UniProt Q00534). Kind of assay: CDK6/CyclinD1 enzyme activity test (LANCE Ultra TR-FRET). The settings on record: 250 μM ATP, 25° C. 120 minutes, read-out: CDK6/Cyclin D1 IC50. It is filed as biochemical. As for the experimental part: CDK6/CyclinD1 Enzyme Reaction System
as §1, §2, §3, §4, §5

For assay [4], the target named is CDK2/CyclinE1 (Homo sapiens (Human), UniProt P24941). Nature of the assay: CDK2/CyclinE1 enzyme activity test (ADP-Glo). In kind it is biochemical. Conditions: 150 μM ATP, 25° C. 60 minutes, read-out: CDK2/Cyclin E1 IC50. As for the experimental part:
CDK2/CyclinE1 Enzyme Reaction System
as §6, with “CDK2/CyclinE1” for “CDK2/CyclinA2”, “(2” for “(1.6”, “(150” for “(50”, “seconds.” for “seconds”
as §5

Assay [5] has as its target CDK1/CyclinB1 (Homo sapiens (Human), UniProt P06493). Kind of assay: CDK1/CyclinB1 enzyme activity test (ADP-Glo). In kind it is biochemical. The settings on record: 25 μM ATP, 25° C. 120 minutes, read-out: CDK1/Cyclin B IC50. As for the experimental part: CDK1/CyclinB1 Enzyme Reaction System
as §6, with “CDK1/CyclinB1” for “CDK2/CyclinA2”, “(12.5” for “(1.6”, “(25” for “(50”, “adenosine triphosphate, 0.2” for “ATP, 0.1”, “120” for “60”, “seconds.” for “seconds”
as §5
For orientation: ADP-Glo first removes unused ATP, then detects ADP through luciferase.

For assay [6], the system named is OVCAR-3 cells. Kind of assay: Cell activity test, anti-proliferation (CellTiter Glo), OVCAR-3. Conditions: OVCAR-3, 7 days of culture. It is filed as cell-based, human. The method, then: 2) Day 1: Laying Cell Plates
(6) 0.7 mL of cell suspension was pipetted into the counting cup, the cells were counted on ViCell XR, and the cell suspension was diluted separately with culture medium to the required cell concentration for laying cell plates: 1000/30 ul.
(7) Microplates (2 plates) were required, 100 uL of phosphate buffered saline was added to the peripheral wells of the 384-well plate, 30 uL of cell suspension was added to the other wells, and the cell plate was placed into incubator for culture.
(1) Compound preparation: the stock solution of the compound to be tested was 10 mM.
(2) The compound to be tested was diluted 3 times with DMSO for 10 gradients.
(2) The compound to be tested was diluted with culture medium, and the highest final concentration was 10 μM.
(4) 10 μL of the compound was pipetted into the 384-well plate, and then the cell plate was placed back into the incubator for culture.
4) Adding CTG and Reading the Plate
(1) After 7 days of culture, 50 ul CellTiter Glo was added to the cell plate, shaken for 10 minutes in the dark, and left at room temperature for 5 minutes.
(2) The plate was read on Envision with the program: US LUM 384 (CPS). The experiment was originally stored in the personal disk:
1. The mean and standard deviation of 0% inhibition (DMSO row, ZPE) and 100% inhibition (PBS row, HPE) were calculated;
2. Inhibition rate (%)=(1−(sample value-average value of 100% inhibition)/(average value of 0% inhibition-average value of 100% inhibition))*100;
3. The curve was fitted by GraphPad 8.0 software;

Assay [7] concerns the target CDK9/CyclinT1 (Homo sapiens (Human), UniProt P50750). Nature of the assay: CDK9/CyclinT1 enzyme activity test (ADP-Glo). In kind it is biochemical. The settings on record: 100 μM ATP, 25° C. 120 minutes, read-out: CDK 9/Cyclin T1 IC50. As for the experimental part:
CDK9/CyclinT1 Enzyme Reaction System
as §6, with “of CDK9/CyclinT1” for “of CDK2/CyclinA2”, “enzyme (4” for “enzyme (1.6”, “ATP (100” for “ATP (50”, “ATP, 0.2” for “ATP, 0.1”, “for 120” for “for 60”, “0.5 seconds.” for “0.5 seconds”
as §5

Assay [8] concerns human ovarian cancer OVCAR-3 cells subcutaneous xenograft tumor. Kind of assay: In vivo efficacy study, OVCAR-3 subcutaneous xenograft tumor BALB/c nude mouse model. As for the experimental part:
In vivo efficacy study of human ovarian cancer OVCAR-3 cells subcutaneous xenograft tumor BALB/c nude mouse model
Cell culture: Human ovarian cancer OVCAR-3 cells were monolayer cultured in vitro, the culture conditions were 10% fetal bovine serum, 100 U/mL Penicillin and 100 μg/mL Streptomycin were added in RPMI 1640 medium, cultured at 37° C. 5% CO2 incubator. Conventional digestion with trypsin-EDTA was performed for passage. When the cell saturation was 80%/90% and the number reached the required level, the cells were collected, counted, and inoculated.
Animals: BALB/c nude mice, female, 6-8 weeks old, weighed 18-22 grams. A total of 95 (42+ additional 53) animals were needed, provided by the Experimental Animal Management Department of Shanghai Institute of Family Planning Sciences (formerly Shanghai Sipulbichem).
Tumor inoculation: 0.2 mL (1×10^7) OVCAR-3 cells (with matrix glue, volume ratio of 1:1) were subcutaneously inoculated on the right back of each mouse, and the mice were grouped administrated when the average tumor volume reached about 150 mm^3.
Dosage and frequency of administration: Day 0 to Day 7, 10 mg/kg; Day 7 to Day 14, 10 mg/kg; Day 14 to Day 21, 30 mg/kg;
Experimental index: The experimental index was used to examine whether tumor growth was inhibited, delayed or cured. Tumor diameters were measured with vernier calipers twice a week. The calculation formula of tumor volume was: V=0.5a×b^2, wherein a and b represented the long and short diameters of the tumor, respectively.

Chain of CDK6/CyclinD1 (Q00534 whole entry): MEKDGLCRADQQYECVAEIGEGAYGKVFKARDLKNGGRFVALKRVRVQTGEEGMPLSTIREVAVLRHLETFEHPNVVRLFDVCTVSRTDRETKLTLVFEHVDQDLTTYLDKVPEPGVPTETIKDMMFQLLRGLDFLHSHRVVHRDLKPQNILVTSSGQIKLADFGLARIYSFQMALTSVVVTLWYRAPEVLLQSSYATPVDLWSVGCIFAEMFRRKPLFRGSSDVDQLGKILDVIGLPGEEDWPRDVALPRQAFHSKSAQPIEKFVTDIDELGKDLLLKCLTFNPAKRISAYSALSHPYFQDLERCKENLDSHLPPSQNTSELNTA
Chain of CDK6/CyclinD1 (P24385 whole entry partner): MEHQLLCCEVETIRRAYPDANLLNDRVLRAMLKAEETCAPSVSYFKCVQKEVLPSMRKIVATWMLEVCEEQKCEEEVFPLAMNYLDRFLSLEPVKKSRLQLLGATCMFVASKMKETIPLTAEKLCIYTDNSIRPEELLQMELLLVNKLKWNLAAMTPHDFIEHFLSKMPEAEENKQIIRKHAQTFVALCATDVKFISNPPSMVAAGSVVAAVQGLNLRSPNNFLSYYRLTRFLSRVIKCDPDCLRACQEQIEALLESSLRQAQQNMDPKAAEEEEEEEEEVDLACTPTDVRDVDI
Chain of CDK4/CyclinD1 (P11802 whole entry): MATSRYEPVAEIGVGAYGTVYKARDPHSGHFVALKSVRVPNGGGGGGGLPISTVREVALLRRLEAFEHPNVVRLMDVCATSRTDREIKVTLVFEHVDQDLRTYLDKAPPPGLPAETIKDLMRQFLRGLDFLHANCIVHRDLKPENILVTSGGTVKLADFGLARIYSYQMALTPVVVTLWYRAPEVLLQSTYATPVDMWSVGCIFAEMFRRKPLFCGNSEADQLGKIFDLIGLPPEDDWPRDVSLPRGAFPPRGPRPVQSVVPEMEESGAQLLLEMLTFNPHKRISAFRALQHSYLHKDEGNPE
Chain of CDK4/CyclinD1 (P24385 whole entry partner): as the sequence (P24385 whole entry partner) above
Chain of CDK1/CyclinB1 (P06493 whole entry): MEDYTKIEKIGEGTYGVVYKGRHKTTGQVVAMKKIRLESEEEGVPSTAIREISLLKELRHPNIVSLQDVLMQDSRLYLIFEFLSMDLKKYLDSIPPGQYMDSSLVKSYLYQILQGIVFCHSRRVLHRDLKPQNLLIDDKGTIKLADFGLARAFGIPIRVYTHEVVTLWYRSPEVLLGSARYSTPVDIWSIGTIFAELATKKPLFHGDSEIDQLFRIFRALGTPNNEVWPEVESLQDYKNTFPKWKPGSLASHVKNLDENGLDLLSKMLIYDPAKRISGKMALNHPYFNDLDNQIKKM
Chain of CDK1/CyclinB1 (P14635 whole entry partner): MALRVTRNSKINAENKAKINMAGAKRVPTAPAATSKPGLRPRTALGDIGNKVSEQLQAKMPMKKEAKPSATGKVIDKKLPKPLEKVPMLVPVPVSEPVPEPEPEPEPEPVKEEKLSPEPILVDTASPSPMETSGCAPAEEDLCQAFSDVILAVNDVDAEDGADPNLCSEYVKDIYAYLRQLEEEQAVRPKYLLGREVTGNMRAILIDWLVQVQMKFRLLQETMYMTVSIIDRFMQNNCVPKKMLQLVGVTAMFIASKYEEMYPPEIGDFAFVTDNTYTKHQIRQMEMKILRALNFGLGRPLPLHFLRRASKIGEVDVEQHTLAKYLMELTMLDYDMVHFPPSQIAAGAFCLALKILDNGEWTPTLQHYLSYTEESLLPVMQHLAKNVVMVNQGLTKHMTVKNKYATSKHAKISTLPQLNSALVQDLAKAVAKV
Chain of CDK9/CyclinT1 (P50750 whole entry): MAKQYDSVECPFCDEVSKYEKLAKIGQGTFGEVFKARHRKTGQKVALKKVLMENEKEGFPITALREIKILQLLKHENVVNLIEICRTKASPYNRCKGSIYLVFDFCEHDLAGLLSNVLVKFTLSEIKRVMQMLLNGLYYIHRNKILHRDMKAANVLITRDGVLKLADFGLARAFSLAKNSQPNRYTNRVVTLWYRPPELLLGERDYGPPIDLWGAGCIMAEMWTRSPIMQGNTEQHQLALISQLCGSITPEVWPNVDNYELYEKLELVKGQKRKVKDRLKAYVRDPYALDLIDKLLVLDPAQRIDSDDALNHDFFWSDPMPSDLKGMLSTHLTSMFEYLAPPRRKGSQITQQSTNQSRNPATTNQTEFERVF
Chain of CDK9/CyclinT1 (O60563 whole entry partner): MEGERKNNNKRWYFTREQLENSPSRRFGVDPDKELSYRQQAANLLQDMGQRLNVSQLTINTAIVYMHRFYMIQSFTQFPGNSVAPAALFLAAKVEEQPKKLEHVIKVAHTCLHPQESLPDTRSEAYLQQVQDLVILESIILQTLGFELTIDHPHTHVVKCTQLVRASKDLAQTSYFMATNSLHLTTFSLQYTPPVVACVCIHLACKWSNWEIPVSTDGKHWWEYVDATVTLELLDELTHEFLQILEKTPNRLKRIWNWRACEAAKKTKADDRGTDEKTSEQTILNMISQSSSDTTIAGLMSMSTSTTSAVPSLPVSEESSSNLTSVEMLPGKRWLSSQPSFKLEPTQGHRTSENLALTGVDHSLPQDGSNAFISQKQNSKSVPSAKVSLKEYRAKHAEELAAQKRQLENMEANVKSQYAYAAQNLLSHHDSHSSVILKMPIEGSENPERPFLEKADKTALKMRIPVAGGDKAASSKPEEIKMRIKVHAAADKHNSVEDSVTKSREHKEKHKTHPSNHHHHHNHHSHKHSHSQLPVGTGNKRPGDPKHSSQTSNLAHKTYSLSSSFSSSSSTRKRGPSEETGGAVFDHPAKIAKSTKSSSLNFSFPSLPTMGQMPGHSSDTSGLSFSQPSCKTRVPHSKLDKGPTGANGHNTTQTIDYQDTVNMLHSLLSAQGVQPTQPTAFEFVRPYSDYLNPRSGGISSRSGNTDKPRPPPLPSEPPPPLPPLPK

For `C[C@@]1(O)CCC[C@H]1Nc1nc(C(F)F)cc2cnc(NC3CCN(S(C)(=O)=O)CC3)nc12` [Compound 14], the IC50 came out at 2.59 nM in assay [1], 1.25 nM in assay [2], 1.69 nM in assay [3] and 4.15 nM in assay [4].

Turning to `CS(=O)(=O)N1CCC(Nc2ncc3ccnc(NC4CCCC4)c3n2)CC1` [Compound 4], the IC50 in assay [1] came out at 1.5 nM; in assay [2] it was 0.27 nM; in assay [3], 1.49 nM.

For `Cc1cc2cnc(NC3CCN(S(C)(=O)=O)CC3)nc2c(N[C@@H]2CCC[C@@]2(C)O)n1` (racemic) [Compound 6], the IC50 is 1.08 nM in assay [1], 0.52 nM in assay [2] and 1.56 nM in assay [3].

As to `CS(=O)(=O)N1CCC(Nc2ncc3cc(C(F)F)nc(N[C@H]4CCCC4(F)F)c3n2)CC1` (single isomer, unassigned) [Compound 21], the IC50 in assay [1] was found to be 0.46 nM; in assay [5], 8.48 nM; in assay [6], 15 nM; in assay [3], 0.34 nM; in assay [4] it was 4.32 nM; in assay [7], 15 nM.

As for `C[C@@]1(O)CCC[C@H]1Nc1nccc2cnc(NC3CCN(S(C)(=O)=O)CC3)nc12` [Compound 1], the IC50 in assay [1] amounted to 3.9 nM; in assay [2], 0.56 nM; in assay [5], 2.72 nM; in assay [3] it was 2.28 nM; in assay [4] it was 1.67 nM.

Take `C[C@@H]1CCCN1c1nc(C(F)F)cc2cnc(NC3CCN(S(C)(=O)=O)CC3)nc12` [Compound 25]: the “Tumor volume (Day 0)” value in assay [8] (Day 0 (at grouping), OVCAR-3 xenograft, BALB/c nude mice) stood at 151 mm^3. Also, in assay [8] (Day 7, 10 mg/kg from day 0 to day 7), the “Tumor volume (Day 7)” value is 226 mm^3. The “Tumor volume (Day 14)” value in assay [8] (Day 14, 10 mg/kg from day 0 to day 14) is 371 mm^3. For the same compound, in assay [8] (Day 21, 10 mg/kg day 0 to day 14, 30 mg/kg from day 14 to day 21), the “Tumor volume (Day 21)” value was determined as 611 mm^3. Further, the IC50 in assay [6] was under 1 nM; in assay [3] it was 0.46 nM; in assay [4], 4.02 nM.
